What was measured:
Assay type in all cases: in vivo
[1] = test system: barnyardgrass (Echinochloa crus-galli); test: Test C preemergence, visual plant response rating
In short: (§1)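 Compounds in a non-phytotoxic solvent with surfactant were applied as a directed soil spray preemergence or to 2–10 cm, one- to two-leaf plants postemergence, in loam–sand soil. After about 10 d in a greenhouse, injury was visually rated against untreated controls on a 0–100 scale (100 = complete control).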

kochia (Bassia scoparia) [2] = test: Test C preemergence, visual plant response rating
In short: as §1

[3] = test system: foxtail, giant (giant foxtail, Setaria faberi); test: Test C preemergence, visual plant response rating
In short: as §1

[4] = test system: pigweed (Amaranthus retroflexus); test: Test C preemergence, visual plant response rating
In short: as §1

[5] = test system: Italian ryegrass (Lolium mutiflorum); test: Test C preemergence, visual plant response rating
In short: as §1

[6] = test system: barnyardgrass (Echinochloa crus-galli); test: Test D flooded paddy test, visual plant response rating; details: 250 g ai/ha, scale 0 to 100 (0 no effect, 100 complete control), 13 to 15 d
Method: (§2) Plant species in the flooded paddy test selected from rice (Oryza sativa), sedge umbrella (small-flower umbrella sedge, Cyperus difformis) duck salad (Heteranthera limosa), and barnyardgrass (Echinochloa crus-galli) were grown to the 2-leaf stage for testing. At time of treatment, test pots were flooded to 3 cm above the soil surface, treated by application of test compounds directly to the paddy water, and then maintained at that water depth for the duration of the test. Treated plants and controls were maintained in a greenhouse for 13 to 15 d, after which time all species were compared to controls and visually evaluated. Plant response ratings, summarized in Table D, are based on a scale of 0 to 100 where 0 is no effect and 100 is complete control. A dash (-) response means no test result.

rice (Oryza sativa) = test: as above; details: 250 g ai/ha, scale 0 to 100 (0 no effect, 100 complete control), 13 to 15 d
Method: as §2

[7] = test system: duck salad (Heteranthera limosa); test: as above; details: 250 g ai/ha, scale 0 to 100 (0 no effect, 100 complete control), 13 to 15 d
Method: as §2

[8] = test system: sedge umbrella (small-flower umbrella sedge, Cyperus difformis); test: as above; details: 250 g ai/ha, scale 0 to 100 (0 no effect, 100 complete control), 13 to 15 d
Method: as §2

[9] = test system: barnyardgrass (Echinochloa crus-galli); test: Test C postemergence, visual plant response rating
Source text: (§3) Seeds of plant species selected from barnyardgrass (Echinochloa crus-galli), kochia (Bassia scoparia), ragweed (common ragweed, Ambrosia artemisiifolia), Italian ryegrass (Lolium mutiflorum), foxtail, giant (giant foxtail, Setaria faberi), foxtail, green (green foxtail, Setaria viridis), and pigweed (Amaranthus retroflexus) were planted into a blend of loam soil and sand and treated preemergence with a directed soil spray using test chemicals formulated in anon-phytotoxic solvent mixture which included a surfactant.
(§4) At the same time, plants selected from these weed species and also wheat (Triticum aestivum), corn (Zea mays), blackgrass (Alopecurus myosuroides), and galium (catchweed bedstraw, Galium aparine) were planted in pots containing the same blend of loam soil and sand and treated with post emergence applications of test chemicals formulated in the same manner. Plants ranged in height from 2 to 10 cm and were in the one- to two-leaf stage for the postemergence treatment. Treated plants and untreated controls were maintained in a greenhouse for approximately 10 d, after which time all treated plants were compared to untreated controls and visually evaluated for injury. Plant response ratings, summarized in Table C, are based on a 0 to 100 scale where 0 is no effect and 100 is complete control. A dash (-)response means no test result.

[10] = test system: wheat (Triticum aestivum); test: Test C postemergence, visual plant response rating
Source text: as §3, §4

kochia (Bassia scoparia) [11] = test: Test C postemergence, visual plant response rating
Source text: as §3, §4

[12] = test system: galium (catchweed bedstraw, Galium aparine); test: Test C postemergence, visual plant response rating
Source text: as §3, §4

[13] = test system: foxtail, giant (giant foxtail, Setaria faberi); test: Test C postemergence, visual plant response rating
Source text: as §3, §4

[14] = test system: pigweed (Amaranthus retroflexus); test: Test C postemergence, visual plant response rating
Source text: as §3, §4

[15] = test system: blackgrass (Alopecurus myosuroides); test: Test C postemergence, visual plant response rating
Source text: as §3, §4

corn (Zea mays) = test: Test C postemergence, visual plant response rating
Source text: as §3, §4

[16] = test system: Italian ryegrass (Lolium mutiflorum); test: Test C postemergence, visual plant response rating
Source text: as §3, §4

[17] = test system: ragweed (common ragweed, Ambrosia artemisiifolia); test: Test C postemergence, visual plant response rating
Source text: as §3, §4

[18] = Test C, 31 g ai/ha, 0 is no effect, 100 is complete control
[19] = Test C, 125 g ai/ha, 0 is no effect, 100 is complete control
[20] = Test C, postemergence, 125 g ai/ha

Compound	Barnyardgrass plant response rating (0 to 100 scale) [1, 18]	Kochia plant response rating (0 to 100 scale) (kochia (Bassia scoparia) [2]; [18])	Foxtail, Giant plant response rating (0 to 100 scale) [3, 18]	Pigweed plant response rating (0 to 100 scale) [4, 18]	Ryegrass, Italian plant response rating (0 to 100 scale) [5, 18]	Plant response rating, Barnyardgrass (Flood) [6]	Plant response rating, Rice (Flood) (rice (Oryza sativa))	Plant response rating, Ducksalad (Flood) [7]	Plant response rating, Sedge, Umbrella (Flood) [8]	Barnyardgrass plant response rating (0 to 100 scale) ([9]; Postemergence, 31 g ai/ha)	Barnyardgrass plant response rating (0 to 100 scale) [9, 20]	Wheat plant response rating (0 to 100 scale) ([10]; Postemergence, 31 g ai/ha)	Wheat plant response rating (0 to 100 scale) [10, 20]	Kochia plant response rating (0 to 100 scale) (kochia (Bassia scoparia) [11]; Postemergence, 31 g ai/ha)	Kochia plant response rating (0 to 100 scale) (kochia (Bassia scoparia) [11]; [20])	Galium plant response rating (0 to 100 scale) ([12]; Postemergence, 31 g ai/ha)	Galium plant response rating (0 to 100 scale) [12, 20]	Foxtail, Giant plant response rating (0 to 100 scale) ([13]; Postemergence, 31 g ai/ha)	Foxtail, Giant plant response rating (0 to 100 scale) [13, 20]	Pigweed plant response rating (0 to 100 scale) ([14]; Postemergence, 31 g ai/ha)	also measured
CC(C)O/N=C(\c1c(O)c(Cl)nn(C)c1=O)c1cc(Br)cc2ccccc12 [Compound 233]	90	0	60	90	0	30	0	0	85	40	60	0	0	0	10	60	90	30	80	60	Barnyardgrass plant response rating (0 to 100 scale) [1, 19]: 100; Kochia plant response rating (0 to 100 scale) (kochia (Bassia scoparia) [2]; [19]): 0; Foxtail, Giant plant response rating (0 to 100 scale) [3, 19]: 100; Pigweed plant response rating (0 to 100 scale) [4, 19]: 90; Ryegrass, Italian plant response rating (0 to 100 scale) [5, 19]: 0; Pigweed plant response rating (0 to 100 scale) [14, 20]: 90; Blackgrass plant response rating (0 to 100 scale) ([15]; Postemergence, 31 g ai/ha): 0; Blackgrass plant response rating (0 to 100 scale) [15, 20]: 30; Corn plant response rating (0 to 100 scale) (corn (Zea mays); Postemergence, 31 g ai/ha): 0; Corn plant response rating (0 to 100 scale) (corn (Zea mays); [20]): 10; Ryegrass, Italian plant response rating (0 to 100 scale) ([16]; Postemergence, 31 g ai/ha): 0; Ryegrass, Italian plant response rating (0 to 100 scale) [16, 20]: 0; Ragweed plant response rating (0 to 100 scale) ([17]; Postemergence, 31 g ai/ha): 100; Ragweed plant response rating (0 to 100 scale) [17, 20]: 100
Cc1nn(C)c(=O)c(/C(=N/OC(C)C)c2cc(Cl)cc(Cl)c2Cl)c1O [Compound 185]	0	0	90	70	10	45	60	85	95	10	60	50	80	10	50	70	100	60	90	40	Barnyardgrass plant response rating (0 to 100 scale) ([1]; 125 g ai/ha): 70; Kochia plant response rating (0 to 100 scale) (kochia (Bassia scoparia) [2]; 125 g ai/ha): 50; Foxtail, Giant plant response rating (0 to 100 scale) ([3]; 125 g ai/ha): 100; Pigweed plant response rating (0 to 100 scale) ([4]; 125 g ai/ha): 100; Ryegrass, Italian plant response rating (0 to 100 scale) ([5]; 125 g ai/ha): 100; Pigweed plant response rating (0 to 100 scale) [14, 20]: 100; Blackgrass plant response rating (0 to 100 scale) ([15]; Postemergence, 31 g ai/ha): 10; Blackgrass plant response rating (0 to 100 scale) [15, 20]: 30; Corn plant response rating (0 to 100 scale) (corn (Zea mays); Postemergence, 31 g ai/ha): 0; Corn plant response rating (0 to 100 scale) (corn (Zea mays); [20]): 20; Ryegrass, Italian plant response rating (0 to 100 scale) ([16]; Postemergence, 31 g ai/ha): 70; Ryegrass, Italian plant response rating (0 to 100 scale) [16, 20]: 100; Ragweed plant response rating (0 to 100 scale) ([17]; Postemergence, 31 g ai/ha): 90; Ragweed plant response rating (0 to 100 scale) [17, 20]: 100
CO/N=C(\c1c(O)c(Cl)nn(C)c1=O)c1cc(Br)cc2ccccc12 [Compound 250]	70	0	40	10	0	25	10	85	70	50	80	0	0	40	60	90	100	20	80	50	Barnyardgrass plant response rating (0 to 100 scale) [1, 19]: 80; Kochia plant response rating (0 to 100 scale) (kochia (Bassia scoparia) [2]; [19]): 80; Foxtail, Giant plant response rating (0 to 100 scale) [3, 19]: 80; Pigweed plant response rating (0 to 100 scale) [4, 19]: 70; Ryegrass, Italian plant response rating (0 to 100 scale) [5, 19]: 0; Pigweed plant response rating (0 to 100 scale) [14, 20]: 70; Blackgrass plant response rating (0 to 100 scale) ([15]; Postemergence, 31 g ai/ha): 10; Blackgrass plant response rating (0 to 100 scale) [15, 20]: 30; Corn plant response rating (0 to 100 scale) (corn (Zea mays); Postemergence, 31 g ai/ha): 0; Corn plant response rating (0 to 100 scale) (corn (Zea mays); [20]): 10; Ryegrass, Italian plant response rating (0 to 100 scale) ([16]; Postemergence, 31 g ai/ha): 0; Ryegrass, Italian plant response rating (0 to 100 scale) [16, 20]: 0; Ragweed plant response rating (0 to 100 scale) ([17]; Postemergence, 31 g ai/ha): 100; Ragweed plant response rating (0 to 100 scale) [17, 20]: 100

Reference: patent US20210045385A1, “PYRIDAZINONE-SUBSTITUTED KETOXIMES AS HERBICIDES” (FMC Corporation, priority 2018, published 2021)
